This is an account of results in US20260103581A1, “PROCESS FOR GRANULATING AZO COMPOUNDS AND GRANULES OBTAINED” (ARKEMA FRANCE, priority 2022, published 2026).

Series [1] is described as follows: physchem. The conditions noted are these: 20 °C, organic solvent or mixture, thermodynamic from solid.
Protocol: (§1) The bottle is shaken for a period of between 1 h and 10 h, for example 6 h. After decantation, said binder is analysed to determine its content of compound of formula (I): this content corresponds to the solubility of the azo compound in the organic binder in g/L. The analysis is carried out by gas chromatography.
(§2) The bottle is shaken for approximately 6 h. After decantation, the organic binder is analysed to determine its AZDN concentration. The analysis is carried out by gas chromatography with an injector temperature set at 220° C. (under these conditions, AZDN is essentially transformed into tetramethylsuccinonitrile in the injector).
Series [2] is described as follows: Measurement of the solubility of AZDN in the organic binder. The conditions noted are these: 20 °C, organic solvent or mixture, thermodynamic from solid.
Protocol: as §1, §2
Series [3] in a line: Granule dissolution test in acetone. The class given is physicochemical. The conditions noted are these: 13 g AZDN in 100 ml acetone, room temperature, 100 rpm, visual. The protocol: A granule dissolution test is carried out at room temperature. A glass Erlenmeyer flask fitted with a magnetic stirring bar is placed on a magnetic stirrer. With the stirring stopped, 13 g of AZDN are introduced into the Erlenmeyer flask. 100 ml of acetone are then introduced quickly and stirring is started (100 rpm). The time taken until, visually, undissolved AZDN crystals are no longer seen is recorded.
Commercial recrystallized AZDN (130-257-438 microns/dv 10-50-90), AZDN granules prepared and dried as obtained above, and the dry powdered AZDN used in Example 1 are compared.

Series [4] in a line: physchem.
Description: The aqueous phase is decanted and then analysed by gas chromatography in order to determine the binder content in g/L, corresponding to its solubility.
The aqueous phase is decanted and then analysed by gas chromatography to determine the concentration of organic binder.
The mark [5] stands for this setting: water, 20 °C, thermodynamic from solid.
The mark [6] stands for this setting: 20 °C, water, thermodynamic from solid.

≈ marks a conversion by molar mass, not a printed value. Some results are limits rather than exact numbers.

In the case of `CC(C)(C#N)N=NC(C)(C)C#N` [AZDN, 2,2′-azobis(isobutyronitrile)], the solubility at 6 h was 85 mg/mL (≈ 518 mM) in the series “physchem [1]” (diethyl carbonate); 59 mg/mL (≈ 359 mM) in the series “physchem [1]” (n-butyl acetate); 59 mg/mL (≈ 359 mM) in series [2] (isobutyl acetate); 25 mg/mL (≈ 152 mM) in series [2] (meta-xylene); 30.5 mg/mL (≈ 186 mM) in series [2] (methoxycyclopentane (CPME)); 75.5 mg/mL (≈ 460 mM) in series [2] (methyl isobutyl ketone). For the same molecule, the solubility at 6 h in series [2] (methyl pentyl ketone) amounted to 45 mg/mL (≈ 274 mM); in series [2] (toluene), 60 mg/mL (≈ 365 mM).
Regarding `CC(C)(C#N)N=NC(C)(C)C#N` [Dry AZDN powder, 2,2′-azobis(isobutyronitrile)], the Dissolution time in series [3] is 15 s.
On to `CC(=O)OCC(C)C` [Isobutyl acetate], for which the solubility at 1 h in the series “physchem [4]” (setting [5]) came out at 7000 µg/mL.
Molecule `COC1CCCC1` [Methoxycyclopentane] gave a solubility at 1 h in “physchem [4]” (setting [5]) of 12500 µg/mL (≈ 125 mM).
As to `CC(=O)CC(C)C` [Methyl isobutyl ketone], the solubility at 1 h in “physchem [4]” (setting [5]) was found to be 20000 µg/mL (≈ 200 mM).
Regarding `CCCCCC(C)=O` [Methyl pentyl ketone], in “physchem [4]” (setting [5]), the concentration in solution (solubility at 1 h) was 5000 µg/mL (≈ 43.8 mM).
Take `CC(C)(C#N)N=NC(C)(C)C#N` [Recrystallized AZDN, 2,2′-azobis(isobutyronitrile), reference compound]: the Dissolution time in series [3] was found to be 35 s.
In the case of `Cc1cccc(C)c1` [meta-Xylene], the solubility at 1 h in the series “physchem [4]” (setting [6]) was below 500 µg/mL.
In “physchem [4]” (setting [6]), `CCCCOC(C)=O` [n-Butyl acetate] had a solubility at 1 h of 7000 µg/mL.
